Values of other authors as cited in patent US20120149888A1, “SYNTHESIS OF ARA-2'-O-METHYL-NUCLEOSIDES, CORRESPONDING PHOSPHORAMIDITES AND OLIGONUCLEOTIDES INCORPORATING NOVEL MODIFICATIONS FOR BIOLOGICAL APPLICATION IN THERAPEUCTICS, DIAGNOSTICS, G- TETRAD FORMING OLIGONUCLEOTIDES AND APTAMERS” (priority 2009, published 2012).
Values joined by “and” are separate entries in the source; they are usually repeats but may differ in a detail not shown here. Equal entries are not always repeated. “Also recorded” adds a separate entry of the source. Where two headings read alike, the source gives them in different places.

How the values were obtained:
[1] = system: L1210/MP(III)
[2] = system: Ehrlich ascites (EAC-R1); conditions: 6-Mercaptopurine-resistant Ehrlich ascites (EAC-R1)
[3] = system: Ehrlich ascites (ETGR1); conditions: Thioguanine-resistant Ehrlich ascites (ETGR1)
[4] = system: L1210/MP; conditions: 6-Mercaptopurine-resistant L1210/MP
[5] = system: 13 human cancer cell lines; conditions: for effect of tetrahydrouridine on antiproliferative activity: Cyd deaminase inhibitor
[6] = target: dCyd kinase (Homo sapiens, UniProt P27707)
dCyd kinase, sequence (P27707 whole entry): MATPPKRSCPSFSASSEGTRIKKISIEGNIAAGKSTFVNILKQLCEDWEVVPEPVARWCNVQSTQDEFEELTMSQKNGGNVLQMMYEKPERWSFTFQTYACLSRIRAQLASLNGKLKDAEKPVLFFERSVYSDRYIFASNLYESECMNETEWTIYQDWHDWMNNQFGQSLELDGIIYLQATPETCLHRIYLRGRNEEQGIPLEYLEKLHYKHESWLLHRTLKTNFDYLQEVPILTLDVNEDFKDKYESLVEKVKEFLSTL

[7] = system: human cancer xenograft; conditions: in vivo
[8] = system: L1210/CA; conditions: 1β-D-Arabinofuranosylcytosine-resistant L1210/CA
[9] = system: L1210-ara-C; conditions: L1210-ara-C (Mihich et al., 1970)
[10] = system: Raji Burkitt's lymphoma; conditions: rat, in vivo
[11] = system: Raji leukemia; conditions: mouse, in vivo
[12] = system: seven tumors (three melanomas, one lung adenocarcinoma, one breast cancer, and two osteogenic sarcomas); conditions: maximum tolerated dose, four weekly cycles of daily bolus i.v. injections for 5 days; lung carcinoma and all three malignant melanomas
[13] = system: nucleoside carrier-dependent transport; conditions: in vitro
[14] = system: Lewis lung carcinoma cells; conditions: in vivo
[15] = system: mouse and human tumor cells
[16] = polarographically, aprotic conditions, in the presence of alpha-lipoic acid
[17] = system: AKR/r-AzCdR
[18] = system: human erythroleukemia cell line (K562)
[19] = system: equilibrative NBMPR-sensitive nucleoside transporter (es); conditions: growth-inhibitory concentrations
[20] = system: Sarcoma 180
[21] = system: P815/FU; conditions: in vivo
[22] = system: L1210/C95; conditions: in vivo
[23] = system: hydroxyurea-, vincristine-, VLB-, TSC-, cortisone- and MGGH-resistant mouse leukemias
[24] = system: L1210 line resistant to MGGH; conditions: in vivo
[25] = system: AKR/r-AzCR; conditions: mouse, in vivo
[26] = in vivo
[27] = system: mouse leukemia L1210; conditions: L1210 cells
[28] = system: human nasopharyngeal KB cells
[29] = system: 36 human tumor cell lines
[30] = system: 11 human tumor xenografts; conditions: 11 xenografts
[31] = system: human tumors
[32] = system: human tumors; conditions: once, 3 times and 5 times weekly for 2 or 4 weeks
[33] = system: P388/CPT45 top1-deficient cells
[34] = target: topoisomerase I (top1) (Homo sapiens, UniProt P11387); conditions: gemcitabine incorporated immediately 3′ from a top1 cleavage site on the nonscissile strand
topoisomerase I (top1), sequence (P11387 whole entry, species assumed): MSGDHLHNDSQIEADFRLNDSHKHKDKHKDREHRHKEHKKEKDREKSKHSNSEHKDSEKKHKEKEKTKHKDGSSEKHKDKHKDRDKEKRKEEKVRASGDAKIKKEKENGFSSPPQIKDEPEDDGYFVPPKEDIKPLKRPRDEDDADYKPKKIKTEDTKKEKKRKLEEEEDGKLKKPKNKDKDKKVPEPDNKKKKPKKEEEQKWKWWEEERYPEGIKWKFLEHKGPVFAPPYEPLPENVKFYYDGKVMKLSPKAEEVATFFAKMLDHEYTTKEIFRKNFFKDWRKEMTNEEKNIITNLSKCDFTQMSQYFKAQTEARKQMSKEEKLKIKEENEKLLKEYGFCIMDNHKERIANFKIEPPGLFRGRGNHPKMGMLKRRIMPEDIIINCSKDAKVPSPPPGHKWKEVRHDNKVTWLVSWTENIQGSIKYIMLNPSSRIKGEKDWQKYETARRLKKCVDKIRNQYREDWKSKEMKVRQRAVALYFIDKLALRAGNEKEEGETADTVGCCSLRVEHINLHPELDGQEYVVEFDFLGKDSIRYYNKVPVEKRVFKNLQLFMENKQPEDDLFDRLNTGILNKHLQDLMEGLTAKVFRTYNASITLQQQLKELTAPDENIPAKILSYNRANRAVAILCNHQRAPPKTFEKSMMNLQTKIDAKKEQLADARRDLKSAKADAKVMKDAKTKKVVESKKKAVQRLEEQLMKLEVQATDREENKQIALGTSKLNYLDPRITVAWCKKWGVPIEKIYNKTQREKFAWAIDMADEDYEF

[35] = system: LNCaP, PC-3 and DU-145
[36] = system: normal primary prostatic epithelial cells; conditions: concentrations up to 100 nM
[37] = system: bone marrow granulopoietic-macrophage progenitor cells; conditions: granulopoietic-macrophagic progenitor cells
[38] = system: ovarian cancer
[39] = system: advanced sarcomas
[40] = system: drug-resistant P388 leukemias
[41] = system: human TT cell line derived from MTC; conditions: 10, 25 and 50 microg/ml for 24 hours
[42] = target: purine nucleoside phosphorylase (PNP) (Homo sapiens, UniProt P00491)
purine nucleoside phosphorylase (PNP), sequence (P00491 whole entry, species assumed): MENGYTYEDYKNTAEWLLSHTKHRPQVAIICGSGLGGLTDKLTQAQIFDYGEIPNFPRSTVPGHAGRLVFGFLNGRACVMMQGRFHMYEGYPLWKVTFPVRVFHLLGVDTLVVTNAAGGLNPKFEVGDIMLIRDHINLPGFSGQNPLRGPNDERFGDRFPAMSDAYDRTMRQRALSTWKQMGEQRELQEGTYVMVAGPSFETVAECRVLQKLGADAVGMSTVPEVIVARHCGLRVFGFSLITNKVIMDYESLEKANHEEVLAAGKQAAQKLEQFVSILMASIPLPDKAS

[43] = system: T-lymphoblasts, B-lymphoblasts
[44] = system: Ehrlich ascites (ETGR11); conditions: Thioguanine-resistant Ehrlich ascites (ETGR11)
[45] = system: Ehrlich ascites (EAC-R2); conditions: 6-Methyl thiopurine ribonucleoside-resistant Ehrlich ascites (EAC-R2)

For `CSc1ncnc2c1ncn2[C@@H]1O[C@H](CO)[C@@H](O)[C@H]1O` [Compound 6-MeMPR, 6-methyl thio-purine ribonucleoside], the “Response to chemotherapeutic drugs: Same as parent line” value (shortened to “Response … as parent line”) ([1]; 6-Mercaptopurine-resistant L1210/MP(III)) is given as “retained sensitivity and 6-MeMPR”, the “Response to chemotherapeutic drugs: Cross-resistant” value (“Response … Cross-resistant” below) [2] is given as “partially cross-resistant and 6-MeMPR^b” and the “Response … Cross-resistant” value [3] is given as “partially cross-resistant and 6-MeMPR^b”.
In the case of `CN(C)/N=N/c1[nH]cnc1C(N)=O` [DIC], the “Response … as parent line” value [4] is given as “DIC”.
For `C=C1[C@H](n2ccc(N)nc2=O)O[C@H](CO)[C@H]1O` [DMDC, 2′-deoxy-2′-methylidenecytidine], the “suppression of the antiproliferative activity of DMDC by dCyd” value [5] is given as “up to 150 fold”, the “effect of tetrahydrouridine on antiproliferative activity” value [5] is given as “reduced” and the “VmaxKm for dCyd kinase, lower than that for dCyd” value [6] is given as 8 fold. The “efficacy in tumors with higher levels of Cyd deaminase” value [7] was “highly effective” and the “efficacy in tumors with lower levels of Cyd deaminase” value [7] was “only slight activity”.
In the case of `CC(C=NNC(=N)N)=NNC(=N)N` [MGGH, methylglyoxal bis(guanylhydrazone)], the “Response … as parent line” value [8] is given as “MGGH” and the “Response … as parent line” value [9] is given as “MGGH”.
For `CCCCCCCC/C=C/CCCCCCCC(=O)OC[C@H]1O[C@@H](n2ccc(N)nc2=O)[C@@H](O)[C@@H]1O` [Compound P-4055], the “long-time survivors (>70 days)” value [10] is listed as “three of five”, the “animals that survived (>80 days)” value [11] is listed as 8 of 10 and the tumor response [12] is listed as “partial or complete tumor regression”. For the same molecule, the “cellular sensitivity in presence of nitrobenzylmercaptopurine riboside and dipyridamol” value [13] was “not”.
For `[C-]#[N+][C@H]1[C@H](O)[C@@H](CO)O[C@H]1n1ccc(N)nc1=O` [Compound 8, 2′-Deoxy-2′-isocyano-1-beta-D-arabinofuranosylcytosine], the tumor volume inhibition [14] is listed as “only moderate tumor volume inhibition” and the cytotoxicity [15] is listed as “moderately cytotoxic”.
For `Nc1ncn([C@@H]2O[C@H](CO)[C@@H](O)[C@H]2O)c(=O)n1` [AzCR, 5-azacytidine], the “index of potential carcinogenicity tg alpha” value [16] is listed as 0.295 and the “Response … as parent line” value ([17]; 5-Aza-2′-deoxycytidine-resistant AKR-r-AzCdr) is listed as “sensitive; also recorded: AKR-r-AzCdr AzCR”.
In the case of `Nc1ccn([C@@H]2O[C@H](CO)[C@@H](O)[C@@H]2O)c(=O)n1` [Ara-C, 1-β-D-Arabinofuranosylcytosine], the mean survival time [10] is given as 13.2 days, the “animals that survived (>80 days)” value [11] is given as “none” and the mean survival time [11] is given as 34.2 days. The “cellular sensitivity in presence of nitrobenzylmercaptopurine riboside and dipyridamol” value [13] was “reduced strongly”, the “resistance of K562R to ara-C compared with K562S” value ([18]; 3H-dThd incorporation, MTT dye reduction and clonogenicity) was “approximately 15 fold” and the “ara-CTP accumulated by K562S versus K562R” value ([18]; 4-h exposure, 10 microM) was “seven times more”. For the same molecule, the “more ara-C incorporated into DNA by K562S versus K562R” value ([18]; 4-h exposure, 10 microM) was “approximately 250%”, the expression of es [19] was “no significant increase” and the “Response … as parent line” value ([20]; in vivo) was “Ara-C”. For the same molecule, the “Response … as parent line” value ([1]; mouse, in vivo) was “retained sensitivity; also recorded: Ara-C”, the “Response … as parent line” value [21] was “retained the same sensitivity; also recorded: Ara-C” and the “response of L1210/C95 to the drug” value [22] was “sensitive”. For the same molecule, the “activity against drug-resistant mouse leukemias” value [23] was “active”, the “response of MGGH-resistant L1210 line to the drug” value [24] was “collaterally sensitive” and the “Response … Cross-resistant” value [25] was “cross-resistant; also recorded: Ara-C”. For the same molecule, the “Response … Cross-resistant” value ([17]; mouse, in vivo) was “cross-resistant; also recorded: Ara-C”.
For `COc1nc(N)nc2c1ncn2[C@@H]1O[C@H](CO)[C@@H](O)[C@@H]1O` [Nelarabine], the “dose toxicity in the clinical trials” value [26] is listed as “neurotoxicity”.
In the case of `C#C[C@@]1(O)[C@@H](CO)O[C@@H](n2ccc(N)nc2=O)[C@@H]1O` [ECyd, 1-(3-C-ethynyl-beta-D-ribo-pentofuranosyl)cytosine], the IC50 [27] is listed as 16 nM, the IC50 [28] is listed as 28 nM and the 1050 values [29] is listed as “nanomolar to micromolar range”. For the same molecule, the “human tumors with potent inhibition” value [30] was 9 of 11, the cytotoxicity ([31]; 24 and 72 h exposures) was “sufficiently potent cytotoxicity” and the cytotoxicity ([31]; 4 h exposure) was “fairly potent cytotoxicity”. The antitumor activity [32] was “strong antitumor activity without serious toxicity”.
In the case of `Nc1nc(N)c2ccc(CNc3ccc(C(=O)N[C@@H](CC(=O)O)C(=O)O)cc3)cc2n1` [Quinaspar], the “Response to chemotherapeutic drugs: collaterally sensitive” value ([20]; 6-Mercaptopurine-resistant Sarcoma 180) is given as “Quinaspar”.
In the case of `CC(=NNC(=N)N)c1ccc(NC(=O)Nc2ccc(C(C)=NNC(=N)N)cc2)cc1` [DDUG, 4′,4′-diacetyldipenylurea bis(guanylhydrazone)], the “Response … Cross-resistant” value [9] is listed as “DDUG”.
In the case of `Nc1ccn([C@@H]2O[C@H](CO)[C@@H](O)C2(F)F)c(=O)n1` [gemcitabine, 2′,2′difluoro-2′deoxycytidine], the “resistance of P388/CPT45 top1-deficient cells to gemcitabine” value [33] is listed as 5 fold, the “top1-mediated DNA cleavage” value [34] is listed as “enhanced” and the “dFdC concentration of maximal inhibition of proliferation and colony formation” value ([35]; LNCaP, PC-3, DU-145) is listed as 30 nM. For the same molecule, the “gemcitabine concentration inhibiting colony formation by two thirds” value ([35]; prostatic tumor cells) was “about 3.5 nM”, the “inhibitory effects in normal primary prostatic epithelial cells” value [36] was “no inhibitory effects” and the “gemcitabine concentration inhibiting colony formation by two thirds” value [37] was 9 nM. For the same molecule, the “response rate with the drug alone” value ([38]; previously treated patients) was “around 13%”, the “response rate for the drug alone” value ([38]; previously untreated patients with poor prognostic features) was 24% and the overall response rate ([39]; 1250 mg/m(2) i.v. weekly × three, q28 days) was 3%. For the same molecule, the median time-to progression ([39]; in vivo) was 2.1 months, the “patients who discontinued treatment due to toxicity/refusal” value ([39]; in vivo) was 14% and the “hematologic toxicities > or = Grade 3, patients” value ([39]; leukopenia and thrombocytopenia) was 32%. The “effect of tetrahydrouridine on antiproliferative activity” value [5] was “increased to some extent”, the “efficacy in tumors with higher levels of Cyd deaminase” value [7] was “only slightly active” and the “cross resistance to gemcitabine” value ([40]; P388 resistant to 1-beta-D-arabinofuranosylcytosine) was “cross resistant”. The “cross resistance to gemcitabine” value ([40]; P388 resistant to vincristine, cyclophosphamide, melphalan, cisplatin, methotrexate) was “not cross resistant”, the “cross resistance to gemcitabine” value ([40]; multidrug-resistant P388 (resistant to doxorubicin or etoposide)) was “no cross resistance” and the “influence on proliferative activity of TT cells” value [41] was “concentration-dependent inhibitory influence”.
In the case of `Nc1nc2c(ncn2[C@@H]2O[C@H](CO)[C@@H](O)[C@@H]2O)c(=O)[nH]1` [araG, N-9-[β-D-Arabinofuranosyl]guanine], the “degradation by purine nucleoside phosphorylase (PNP)” value [42] is given as “relatively resistant” and the “efficiency in T-lymphoblasts compared to B-lymphoblasts” value [43] is given as “higher efficiency”.
For `Sc1ncnc2nc[nH]c12` [6-Mercaptopurine], the “Response … Cross-resistant” value [44] is given as 6-Mercaptopurine, the “Response … Cross-resistant” value [45] is given as 6-Mercaptopurine^b and the “Response … Cross-resistant” value ([45]; listed as 6-MP) is given as “partially cross-resistant”.
